Data reported in publication PMC5974779, “Prediction of Drug-Induced Hepatotoxicity Using Long-Term Stable Primary Hepatic 3D Spheroid Cultures in Chemically Defined Conditions” (Toxicological Sciences, 2018).
Where two headings read alike, the source gives them in different places.

Assays:
[1] = tested on: primary human hepatocytes (PHH) 3D spheroids
[2] = cited from earlier work
[3] = tested on: PHH spheroids (hanging-drop); details: cited from earlier work
[4] = ref DrugBank and Prescribers' Digital Reference database; cited from earlier work
clinical DILI in man = details: cited from earlier work
in vitro = details: human
[5] = tested on: PHH micropatterned cocultures with murine embryonic fibroblasts; details: cited from earlier work
PHH 2D sandwich cultures = details: cited from earlier work; for hepatotoxicity detection in 2D sandwich cultures of PHH: 100× cmax, 24 h, high content imaging
[6] = tested on: primary human hepatocytes (PHH) 3D spheroids; assay: CD-spheroid hepatotoxicity: ATP viability (CellTiter-Glo) of PHH 3D spheroids after 14 days repeated exposure at 1×, 5×, 20× cmax
[7] = therapeutic total cmax, ref PMID
[8] = PHH hanging-drop spheroids, 100x Cmax, ref Proctor 2017
[9] = micropatterned cocultures, 100x Cmax, ref Khetani 2013
[10] = PHH 2D sandwich cultures, 100x Cmax, ref Xu 2008
[11] = clinical DILI classification in man (POS/NEG)
[12] = clinical DILI classification used in this study, Supplementary Table 2, ref Chen et al., 2011, Guo et al., 2005, O'Brien et al., 2006, Sakatis et al., 2012, Suzuki et al., 2010, Xu et al., 2008
[13] = clinical DILI classification, Supplementary Table 1, ref Chen et al., 2011, Guo et al., 2005, O'Brien et al., 2006, Sakatis et al., 2012, Suzuki et al., 2010, Xu et al., 2008

Compound	Chemically defined spheroids (this study) 20x [1]	Cmax [2, 7] [nM]	Hanging-drop spheroids (Proctor 2017) 100x [3, 8]	Extent of hepatic metabolism [4]	Classified as (clinical DILI in man; in vivo)	Clinical DILI class (panel heading of Figure 4) (clinical DILI in man; in vivo)	DILI in vivo (clinical DILI in man; in vivo)	FDA (0-8) (clinical DILI in man; in vivo)	FDA (Severity) (clinical DILI in man; in vivo)	Suzuki et al. (2010) (clinical DILI in man; in vivo)	Type of DILI (clinical DILI in man; in vivo)	MPCC (Khetani 2013) 100x [5, 9]	2Dsw (Xu 2008) 100x (PHH 2D sandwich cultures; [10])	also measured
Cc1ccc(C(=O)c2cc(O)c(O)c([N+](=O)[O-])c2)cc1 [Tolcapone]	Positive	47600	Positive	Extensive	POS	Severe DILI	POS	8	most DILI concern	3	Hepatocellular injury or Mixed hepatitis			Guo et al. (2005) (clinical DILI in man; in vivo): 3; viability at 14 days, 1 × cmax (in vitro): < 10%
O=C(O)Cc1ccccc1Nc1c(Cl)cccc1Cl [Diclofenac]	Positive		Positive									Positive	Positive	
Aflatoxin B1					POS		POS				Hepatocellular injury			Chemically defined spheroids (this study) 20x [6]: Positive; Cmax ([2]; human, in vivo): 30 nM
CNCCC(Oc1ccc(C(F)(F)F)cc1)c1ccccc1 (stereo not shown) [Fluoxetine]	Negative				NEG	DILI negative	NEG	3		2	Non-hepatotoxic			hepatotoxicity classification in hanging-drop PHH spheroids ([3]; 100× cmax, 2 weeks, ref Proctor et al., 2017): flagged as hepatotoxic; Hanging-drop spheroids (Proctor 2017) 100x [3]: Positive; MPCC (Khetani 2013) 100x [5]: Negative; Sakatis et al. (2012) (clinical DILI in man; in vivo): non-hepatotixic; Xu et al. (2008) (clinical DILI in man; in vivo): Negative; 2Dsw (Xu 2008) 100x (PHH 2D sandwich cultures): Negative
Nc1c2c(nc3ccccc13)CCCC2 [Tacrine]	Negative				POS	High DILI concern	POS				Hepatocellular injury			Cmax ([2]; human, in vivo): 70 nM; Hanging-drop spheroids (Proctor 2017) 100x [3]: Negative; viability at 14 days, 20 × cmax (in vitro): > 100%; 2Dsw (Xu 2008) 100x (PHH 2D sandwich cultures): Negative
CC(CCc1ccccc1)NCC(O)c1ccc(O)c(C(N)=O)c1 (stereo not shown) [Labetalol]	Negative	2680		Extensive	POS	Severe DILI	POS	8	most DILI concern	3	Hepatocellular injury		Positive	hepatotoxicity evaluation in CD-spheroids [1]: predicted to be DILI negative; O'Brien et al. (2003) (clinical DILI in man; in vivo): Severely; Sakatis et al. (2012) (clinical DILI in man; in vivo): Hepatotoxic; Xu et al. (2008) (clinical DILI in man; in vivo): Positive; viability at 14 days, 20 × cmax (in vitro): > 100%; hepatotoxicity detection in 2D sandwich cultures of PHH (PHH 2D sandwich cultures; ref Xu et al., 2008): flagged as hepatotoxic; reactive oxygen species levels in 2D sandwich cultures of PHH (PHH 2D sandwich cultures; ref Xu et al., 2008): only slight increases in reactive oxygen species levels
CC(=O)N1CCN(c2ccc(OCC3COC(Cn4ccnc4)(c4ccc(Cl)cc4Cl)O3)cc2)CC1 (stereo not shown) [Ketoconazole]	Positive		Positive	Extensive	POS	Severe DILI	POS	8	most DILI concern	2	Hepatocellular injury or Cholestatic injury			Guo et al. (2005) (clinical DILI in man; in vivo): 3; O'Brien et al. (2003) (clinical DILI in man; in vivo): Severely; Sakatis et al. (2012) (clinical DILI in man; in vivo): Hepatotoxic; viability at 14 days, 1 × cmax (in vitro): < 10%
COC1=CC(=O)C[C@@H](C)[C@]12Oc1c(Cl)c(OC)cc(OC)c1C2=O [Griseofulvin]	Negative	4540		Extensive										viability at 14 days, 20 × cmax (in vitro): > 100%
Cn1cnc([N+](=O)[O-])c1Sc1ncnc2nc[nH]c12 [Azathioprine]	Positive	7210	Positive	Extensive	POS	High DILI concern	POS	5	less DILI concern	1	Cholestatic injury or Mixed hepatitis		Positive	Guo et al. (2005) (clinical DILI in man; in vivo): 3; O'Brien et al. (2003) (clinical DILI in man; in vivo): Moderately; Sakatis et al. (2012) (clinical DILI in man; in vivo): Hepatotoxic; Xu et al. (2008) (clinical DILI in man; in vivo): Positive; viability at 14 days, 1 × cmax (in vitro): < 10%
CNCCC=C1c2ccccc2CCc2ccccc21 [Nortriptyline]	Positive	1500		Extensive								Positive	Negative	FDA (Severity) (clinical DILI in man; FDA drug labeling DILI concern, ref Chen et al., 2011): most DILI concern; FDA (0-8) (clinical DILI in man; FDA drug labeling DILI score, ref Chen et al., 2011): 8; DILI in vivo (clinical DILI in man; [11]): POS; Classified as (clinical DILI in man; [12]): POS; DILI in vivo (clinical DILI in man; [13]): POS; Xu et al. (2008) (clinical DILI in man; clinical DILI classification, ref Xu et al. (2008)): Positive; Type of DILI (clinical DILI in man; reported pattern of liver damage, Supplementary Table 2, ref literature): Hepatocellular injury
CNCCc1ccccn1 [Betahistine]	Negative	3.7		Moderate								Negative	Negative	DILI in vivo (clinical DILI in man; [11]): POS; Classified as (clinical DILI in man; [12]): POS; DILI in vivo (clinical DILI in man; [13]): POS
CN(C)CCCN1c2ccccc2CCc2ccccc21 [Imipramine]			Positive	Extensive								Positive	Negative	hepatotoxicity detection in 2D sandwich cultures of PHH (PHH 2D sandwich cultures; ref Xu et al., 2008): liver toxicity was not recognized
O=C1CC2(CCCC2)CC(=O)N1CCCCN1CCN(c2ncccn2)CC1 [Buspirone]	Negative		Negative									Negative	Negative	hepatotoxicity evaluation in CD-spheroids [1]: not hepatotoxic
O=c1n(CCCN2CCN(c3cccc(Cl)c3)CC2)nc2ccccn12 [Trazodone]	Positive	5100		Extensive	POS	High DILI concern	POS	5	less DILI concern		Hepatocellular injury, Cholestatic injury or Mixed hepatitis	Positive	Positive	Xu et al. (2008) (clinical DILI in man; in vivo): Positive
